Measurements: PMC10034064, “Expanding the apelin receptor pharmacological toolbox using novel fluorescent ligands” (Frontiers in Endocrinology, 2023)
Bridge positions count the residues as written; N and C are the ends. Peptide text beside a SMILES is read from it.

Tests used:
apelin receptor [1] = target: T1, apelin receptor (Homo sapiens, UniProt P35414); test: Fluorescent ligand binding (saturation, specificity, competition) in CHO-APLNR cells by high content imaging; design: host or cells: CHO-K1
T1 sequence (P35414 1-380): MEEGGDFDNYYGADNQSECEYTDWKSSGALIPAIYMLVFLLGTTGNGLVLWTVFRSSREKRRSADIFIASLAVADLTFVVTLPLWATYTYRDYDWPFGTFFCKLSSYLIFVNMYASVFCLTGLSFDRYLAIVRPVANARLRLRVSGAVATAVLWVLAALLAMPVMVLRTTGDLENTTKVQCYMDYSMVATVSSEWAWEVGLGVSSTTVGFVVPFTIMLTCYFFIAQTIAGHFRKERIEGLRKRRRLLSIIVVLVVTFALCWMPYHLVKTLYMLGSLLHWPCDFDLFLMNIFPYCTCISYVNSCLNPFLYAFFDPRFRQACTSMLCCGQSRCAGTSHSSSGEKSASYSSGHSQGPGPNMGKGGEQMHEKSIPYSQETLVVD
Experimental: (§1) Cells were seeded in CellCarrier-96 Ultra Plates at a density of ~10 k/well. […] For time-course experiments, CHO-APLNR were treated with 300 nM of the fluorescent ligand for 0 – 90 mins, in the dark at room temperature. For saturation binding experiments, CHO-APLNR were treated with a concentration range of 1 – 300 nM of the fluorescent ligand for 90 mins, in the dark at room temperature. […] Untransfected CHO-K1 cells were also used as controls. […] At the end-points, CHO-APLNR were washed with HBSS before fixation with 4% formaldehyde. CHO-APLNR were washed with HBSS before treatment with Hoechst 33342 nuclear marker prepared at 10 µg/mL in HBSS for 15 mins. […] The software was also used to calculate binding affinities (Ki values) of competing ligands using the Cheng-Prusoff equation.
(§2) For imaging studies, cells in CellCarrier-96 Ultra Plates (PerkinElmer) were imaged using a 40x/NA1.1 water immersion objective. The device was set to measure an image field within each well, where the field is made up of a 4 x 4 or 5 x 5 grid of imaging regions (where each region is 250 x 250 μm in area). After using Z stacking to find an appropriate focal plane, cells were visualised and imaged at a focal depth of 0.5 μm above the bottom of the plate in all experiments. […]
(§3) Following image acquisition, several cell parameters were quantified using in-built Harmony High Content Imaging and Analysis Software (PerkinElmer). […] Intracellular fluorescence was calculated as fluorescence identified in the membrane collar subtracted from whole cell fluorescence. Mean fluorescence intensities were calculated for membrane and whole cell compartments in observed cells in the selected population, given as fluorescence units provided by Harmony software.

apelin receptor [2] = target: T1, apelin receptor; test: Dynamic mass redistribution assay in CHO-APLNR cells; type: cell-based; design: host or cells: CHO-K1; conditions: maximal change in peak wavelength value from baseline, n = 3
Experimental: Apelin receptor downstream signalling was determined using an in vitro BIND technology dynamic mass redistribution assay (SRU Biosystems). CHO-APLNR cells were seeded in 96-well biosensor plates (SRU Biosystems) at a density of 50K/well, maintained in 95 µL feeding media, and incubated for 24 h at 37°C, 5% CO2, humidified. The following day, the plate was loaded onto the SRU Biosystems BIND PROFILER TURBO reader, and left to acclimatise to room temperature for 20 mins before a baseline read was taken over 10 mins. To test novel fluorescent compounds for agonist activity, cells were treated with test compounds (5 µL additions in PBS) over a concentration range to generate an 8-point concentration-response curve. The biosensor plate was read for a subsequent 60 mins. Responses, measured in maximal change in peak wavelength value from baseline (ΔPWV), were fitted to four parameter logistic concentration response curves in GraphPad Prism version 6.07 for Windows (GraphPad Software) to determine compound concentrations inducing half maximal response (EC50), and pD2 values (-log10 EC50) were calculated.

apelin receptor [3] = target: T1, apelin receptor; test: Fluorescent ligand binding in human kidney tissue sections
Experimental: Frozen human kidney tissue sections (10 µm), were cut using a cryostat onto microscopy slides. […] Slides were washed with HBSS before fixation with 4% formaldehyde for 3 mins.
Automated fluorescent images (16 bit, 0.325 x 0.325 μm scaling per pixel) of fixed and mounted human tissue stained with fluorescent markers were acquired using an Axio Scan Z1 slide scanner (Zeiss) slide scanner with a Plan-Apochromat 20x/NA0.8 M27 objective lens connected to a Hamamatsu Orca Flash camera. An initial brightfield scan was performed to visualise tissue on slides, and a spline contour tool was used to outline the tissue to minimise the total region imaged. A profile with three fluorescent channels was used; a first channel (blue), with an LED-Module 385 nm light source set at 10% intensity and 10 ms exposure time at a depth of focus of 1.45 μm for Hoechst 33342 nuclear marker (405 nm wavelength); a second channel (green), with an LED-Module 475 nm light source set at 80% intensity and 30 ms exposure time at a depth of focus of 1.64 μm for 488 nm wavelengths; and a third channel (yellow/orange), an LED-Module 567 nm light source set at 80% intensity and 30 ms exposure time at a depth of focus of 1.88 μm for 555 nm wavelengths. Focal depths were determined by the slide scanner’s in-built Z stacking autofocusing. All acquired images were saved and visualised using ZEN software (Zeiss) and/or Orbit Image Analysis (ORBIT) software. Regions of interest were identified using the spline contour, and mean fluorescent signal (in grayscales) was provided by ZEN software (Zeiss).

apelin receptor [4] = target: T1, apelin receptor; test: Radioligand competition binding against [125I]-apelin-13 in human left ventricle homogenate; design: Surgical samples of human left ventricle (HLV) tissue were obtained with informed consent; from tissue; host or cells: human left ventricle homogenate; conditions: apelin ligands vs [Pyr1]apelin-13; ELA ligands vs ELA-14
Experimental: Surgical samples of human left ventricle (HLV) tissue were obtained with informed consent and ethical approval (05/Q104/142). Tissues were snap frozen in liquid nitrogen before storage at -80°C. On the day of preparation, tissue was chopped finely with a razor blade on ice, before subsequent homogenisation using a Polytron Homogenizer (Thomas Scientific), in homogenisation buffer (50 mM Tris-HCl, 5 mM MgCl2, 5 mM EDTA, 1 mM EGTA, 1:500 protease inhibitor cocktail containing aprotinin and amastatin, balanced at pH 7.4) at 4°C. The resulting homogenate was subsequently spun at 1000 xg for 2 mins at 4°C. Supernatant was transferred to another set of tubes (pellet discarded) for a high speed spin at 40,000 xg, for 30 mins at 4°C. Supernatant was then discarded, and the remaining pellet resuspended in 2.5 mL/g of homogenisation buffer, before a second high speed spin at 40,000 xg, for 30 mins at 4°C. The supernatant was discarded, and the remaining pellet was resuspended in HEPES buffer (50 mM HEPES, balanced at pH 7.4 at room temperature) and stored in the freezer at -70°C until use in assays.
The radiolabel has a specific activity of 2200 Ci/mmol. […]
Total binding was determined in the absence of competing fluorescent ligand. […] Radioactivity in pellets was counted using a Cobra II model 5003 gamma counter (Packard). […]

[5] = target: T2, human apelin receptor (AGTRL1) (Homo sapiens, UniProt P35414); test: PathHunter GPCR internalisation assay in U2OS cells; type: cell-based; conditions: U2OS cells overexpressing human apelin receptor, 90 mins, n = 3
T2 construct: host or cells: U2OS
T2 sequence (P35414 1-380): T1 sequence (P35414 1-380)
Experimental: Internalisation of apelin receptor following ligand treatment was determined using an in vitro PathHunter GPCR Internalisation Assay (Eurofins). The manufacturer’s protocol was modified in accordance with previous in-house optimisation. All reagents were provided in the assay kit. U2OS cells overexpressing human apelin receptor (AGTRL1) were seeded in cell plating reagent into 96-well plates and incubated for 48 h at 37°C, 5% CO2, humidified. To test novel fluorescent compounds for agonist activity, wells were treated with test compounds over a concentration range in Cell Plating Reagent to generate an 8-point concentration-response curve. Cells were then incubated for 90 mins at 37°C, 5% CO2, humidified before treatment with Working Detection Solution (Cell Assay Buffer, Substrate Reagent 1, Substrate Reagent 2), and incubation for 2 h at room temperature, protected from light. Plates were read in a chemiluminescence detecting LumiLITE Microplate Reader (DiscoveRx, Fremont, CA, USA). Responses, measured in Relative Light Units (RLU), were fitted to four parameter logistic concentration response curves in GraphPad Prism version 6.07 for Windows (GraphPad Software) to determine compound concentrations inducing half maximal response (EC50), and pD2 values (-log10 EC50) were calculated.

apelin receptor [6] = test: Fluorescent ligand binding (saturation, specificity, competition) in CHO-APLNR cells by high content imaging; conditions: 300 nM apelin647, wild-type CHO-K1 cells without apelin receptor
Experimental: as §1, §2, §3

[7] = 1 µM fluorescent ligand alone, human kidney sections, 30 mins
[8] = 1 µM fluorescent ligand plus 10 µM [Pyr1]apelin-13 (apelin488) or ELA-14 (ELA488)

SMILES: CCC(CC)n1c(Cc2cccs2)nc2cc(C(=O)N[C@H](CC(=O)O)CC(C)C)ccc21 [CMF-019]
- pKi (apelin receptor [1]): 5.91

SMILES: CSCC[C@H](NC(=O)[C@H](CS)NC(=O)[C@H](CCCNC(=N)N)NC(=O)[C@H](CCCNC(=N)N)NC(=O)[C@H](CCC(N)=O)NC(=O)CCOCCOCCOCCOCCNC(=O)c1ccc(-c2c3ccc(=N)c(S(=O)(=O)O)c-3oc3c(S(=O)(=O)O)c(N)ccc23)c(C(=O)O)c1)C(=O)N1CCC[C@H]1C(=O)N[C@@H](CC(C)C)C(=O)N[C@@H](Cc1c[nH]cn1)C(=O)N[C@@H](CO)C(=O)N[C@@H](CCCNC(=N)N)C(=O)N[C@H](C(=O)N1CCC[C@H]1C(=O)N[C@@H](Cc1ccccc1)C(=O)N1CCC[C@H]1C(=O)O)C(C)C [ELA488]
- Emax (apelin receptor [2]): 240.32 ± 27.91 ΔPWV
- mean fluorescence in renal blood vessels (apelin receptor [3]; [7]): 18869 ± 5968 grayscales
- mean fluorescence in tubular structures of the renal cortex (apelin receptor [3]; [7]): 7392 ± 1338 grayscales
- mean fluorescence in renal blood vessels in the presence of unlabelled parent ligand (apelin receptor [3]; [8]): 7946 ± 3656 grayscales
- mean fluorescence in tubular structures of the renal cortex in the presence of unlabelled parent ligand (apelin receptor [3]; [8]): 2458 ± 801 grayscales
- binding affinity fold lower than the unlabelled endogenous parent ligand (apelin receptor [4]): ~ 23 fold
- Emax [5]: 169693 ± 9461 RLU

SMILES: CSCC[C@H](NC(=O)[C@H](CS)NC(=O)[C@H](CCCNC(=N)N)NC(=O)[C@H](CCCNC(=N)N)NC(=O)[C@H](CCC(N)=O)NC(=O)CCOCCOCCOCCOCCNC(=O)CCCCCC1(C)C(=CC=CC=CC2=[N+](CCCS(=O)(=O)[O-])c3ccc(S(=O)(=O)O)cc3C2(C)C)N(CCCS(=O)(=O)O)c2ccc(S(=O)(=O)O)cc21)C(=O)N1CCC[C@H]1C(=O)N[C@@H](CC(C)C)C(=O)N[C@@H](Cc1c[nH]cn1)C(=O)N[C@@H](CO)C(=O)N[C@@H](CCCNC(=N)N)C(=O)N[C@H](C(=O)N1CCC[C@H]1C(=O)N[C@@H](Cc1ccccc1)C(=O)N1CCC[C@H]1C(=O)O)C(C)C (stereo partly shown) [ELA647]
- Emax (apelin receptor [2]): 185.23 ± 36.82 ΔPWV
- binding affinity fold lower than the unlabelled endogenous parent ligand (apelin receptor [4]): ~ 58 fold
- Emax [5]: 128992 ± 6218 RLU

SMILES: CC(C)C[C@@H]1NC(=O)[C@H](CCCNC(=N)N)NC(=O)[C@@H]2CCCN2C(=O)[C@H](CCCNC(=N)N)NC(=O)[C@@H](NC(=O)[C@H](Cc2c[nH]cn2)NC(=O)[C@H](CCCCN)NC(=O)[C@@H]2CSSC[C@H](N)C(=O)N[C@@H](CCCNC(=N)N)C(=O)N3CCC[C@H]3C(=O)N[C@@H](CCCNC(=N)N)C(=O)N[C@@H](CC(C)C)C(=O)N2)CSSC[C@@H](C(=O)O)NC1=O [MM54] (H-CRPRLCKHCRPRLC-OH; disulfide 1-6, 9-14)
- Ki (apelin receptor [1]): 5.75 µM

SMILES: CCCC[C@H](NC(=O)[C@@H]1CCCN1C(=O)CNC(=O)[C@H](CCCCN)NC(=O)[C@H](Cc1c[nH]cn1)NC(=O)[C@H](CO)NC(=O)[C@H](CC(C)C)NC(=O)[C@H](CCCNC(=N)N)NC(=O)[C@@H]1CCCN1C(=O)[C@H](CCCNC(=N)N)NC(=O)[C@H](CCC(N)=O)NC(=O)CCOCCOCCOCCOCCNC(=O)CCCCCC1(C)C(=CC=CC=CC2=[N+](CCCS(=O)(=O)[O-])c3ccc(S(=O)(=O)O)cc3C2(C)C)N(CCCS(=O)(=O)O)c2ccc(S(=O)(=O)O)cc21)C(=O)N1CCC[C@H]1C(=O)N[C@@H](Cc1ccc(OCc2ccccc2)cc1)C(=O)O (stereo partly shown) [apelin647]
- binding in wild-type CHO-K1 cells (apelin receptor [6]): 0.70 ± 0.45 mean fluorescence
